Where two headings read alike, the source gives them in different places.

This is an account of results in paper PMC10708125, “Antidiabetic Activity, Molecular Docking, and ADMET Properties of Compounds Isolated from Bioactive Ethyl Acetate Fraction of Ficus lutea Leaf Extract” (Molecules, 2023).

For test [1], the target named is T1, rat intestinal α-glucosidase (Rattus norvegicus, UniProt P23739).
T1 construct: rat intestinal α-glucosidase solution; from tissue; host or cells: rat intestine
Kind of test: α-Glucosidase inhibition assay. The class given is biochemical. Here is the method:
The effect of the isolated compounds on the activity of the α-glucosidase enzyme was evaluated by the method of Olaokun et al.. Firstly, a solution of 2.5 mg of compound in 1 mL of 50% dimethyl sulfoxide was made. A compound solution (100 μL) and sucrose (200 μL of a 56 mM solution) in 0.1 M PO4 buffer (pH 7) were incubated at 37 °C for 5 min. Then 200 μL of rat intestinal α-glucosidase solution was added with vigorous shaking before incubation for 20 min. Thereafter, 750 μL of 2 M Tris-HCl buffer (pH 6.9) was added to the mixture. […] The quantity of glucose released was estimated using the glucose oxidase method, with absorbance recorded at 540 nm. […] (1) %Inhibition=100×∆AControl−∆ASample/∆AControl∆AControl=ATest−ABlank∆ASample=ATest−ABlank

The subject of the next test is H-4-11-E rat liver cells. Kind of test: Glucose utilization in H-4-11-E liver cells. The settings on record: 250 µg/mL, 3 h, percentage of untreated control cells ± SEM. It is filed as cell-based. As to the method:
(§1) The potential of compounds to stimulate cells to utilize glucose was estimated using the method adopted by Olaokun et al.. […] The C2C12 cells were incubated for 4 days, while the H-4-11-E cells were incubated for 2 days at 37 °C in a 5% CO2 incubator. Thereafter, the cells were examined and utilized for the glucose uptake assay. […] The treated cells were incubated for 1 h (C2C12) and 3 h (H-4-11-E). The positive control was insulin (Sigma) (1 μM) for C2C12 cells and metformin (Sigma) (1 µM) for H-4-11-E cells. Thereafter, the amount of glucose in the medium was evaluated using the glucose oxidase method, with absorbance recorded at 540 nm. The percentage of glucose utilized was calculated as the percentage change in absorbance in comparison to the untreated cells using Equation (2). (2) %Glucose utilized=100×∆AControl (untreated cells)−∆ASample (treated cells)/∆AControl (untreated cells)

The next test has as its system C2C12 muscle cells. Kind of test: Glucose utilization in C2C12 muscle cells. The class given is cell-based. To be noted: 250 µg/mL, 1 h, percentage of untreated control cells ± SEM. Here is the method: as §1
Setting [2] is: rat intestinal α-glucosidase, sucrose substrate, mean ± SEM, read-out: IC50, α-glucosidase inhibitory activity (converted).

T1 sequence (P23739 whole entry): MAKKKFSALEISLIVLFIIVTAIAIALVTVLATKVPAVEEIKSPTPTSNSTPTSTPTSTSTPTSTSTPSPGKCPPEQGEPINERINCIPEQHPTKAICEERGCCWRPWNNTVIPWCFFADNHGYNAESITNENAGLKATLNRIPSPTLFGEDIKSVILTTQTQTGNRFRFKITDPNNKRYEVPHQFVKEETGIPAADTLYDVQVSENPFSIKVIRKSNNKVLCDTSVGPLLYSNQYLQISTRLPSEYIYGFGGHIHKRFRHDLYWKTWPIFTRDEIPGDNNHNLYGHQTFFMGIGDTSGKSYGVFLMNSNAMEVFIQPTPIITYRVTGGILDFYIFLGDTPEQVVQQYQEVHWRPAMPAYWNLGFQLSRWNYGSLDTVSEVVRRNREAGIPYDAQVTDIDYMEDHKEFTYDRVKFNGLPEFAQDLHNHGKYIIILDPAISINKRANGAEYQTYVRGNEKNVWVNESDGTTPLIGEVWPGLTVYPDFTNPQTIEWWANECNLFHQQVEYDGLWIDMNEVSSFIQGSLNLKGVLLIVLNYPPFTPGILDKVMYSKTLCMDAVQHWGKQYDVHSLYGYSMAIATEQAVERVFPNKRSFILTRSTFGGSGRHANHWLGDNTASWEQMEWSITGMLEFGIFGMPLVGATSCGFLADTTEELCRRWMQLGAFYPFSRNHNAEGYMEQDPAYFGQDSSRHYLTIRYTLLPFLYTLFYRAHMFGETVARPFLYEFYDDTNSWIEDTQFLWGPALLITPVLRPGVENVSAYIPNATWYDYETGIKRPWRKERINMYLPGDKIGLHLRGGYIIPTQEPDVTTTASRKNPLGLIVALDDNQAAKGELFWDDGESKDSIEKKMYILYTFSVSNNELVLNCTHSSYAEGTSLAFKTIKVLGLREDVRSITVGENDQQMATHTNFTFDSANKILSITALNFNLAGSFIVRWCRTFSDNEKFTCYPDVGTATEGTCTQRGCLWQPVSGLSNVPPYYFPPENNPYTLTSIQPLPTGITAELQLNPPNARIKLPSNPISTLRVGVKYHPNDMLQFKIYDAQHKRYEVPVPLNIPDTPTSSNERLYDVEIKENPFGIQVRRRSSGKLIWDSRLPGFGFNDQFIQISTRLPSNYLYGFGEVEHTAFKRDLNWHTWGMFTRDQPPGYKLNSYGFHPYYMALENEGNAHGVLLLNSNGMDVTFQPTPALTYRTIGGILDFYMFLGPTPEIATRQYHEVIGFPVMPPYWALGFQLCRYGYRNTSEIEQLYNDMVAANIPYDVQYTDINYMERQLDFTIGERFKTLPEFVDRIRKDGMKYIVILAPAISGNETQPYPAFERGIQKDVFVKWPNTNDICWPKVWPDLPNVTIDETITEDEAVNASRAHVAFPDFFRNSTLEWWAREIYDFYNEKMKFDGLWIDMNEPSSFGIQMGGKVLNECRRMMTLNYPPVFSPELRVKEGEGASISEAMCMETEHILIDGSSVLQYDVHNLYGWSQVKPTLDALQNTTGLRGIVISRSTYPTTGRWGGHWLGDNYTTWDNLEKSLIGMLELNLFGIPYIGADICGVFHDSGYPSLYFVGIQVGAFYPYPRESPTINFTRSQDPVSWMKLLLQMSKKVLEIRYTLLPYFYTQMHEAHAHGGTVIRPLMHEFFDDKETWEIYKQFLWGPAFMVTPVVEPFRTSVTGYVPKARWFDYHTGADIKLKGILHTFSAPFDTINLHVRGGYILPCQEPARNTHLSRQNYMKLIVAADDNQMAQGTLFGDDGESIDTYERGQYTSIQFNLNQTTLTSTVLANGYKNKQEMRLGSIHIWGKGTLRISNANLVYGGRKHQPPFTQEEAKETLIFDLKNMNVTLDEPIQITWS

In general, IC50 refers to the concentration at which inhibition is half-maximal. For the molecule `CC(=O)OC1CCC2(C)C(CCC3(C)C2CC=C2C4C(C)C(C)CCC4(C)CCC23C)C1(C)C` (stereo not drawn) [α-Amyrin acetate, α-amyrin acetate], the IC50 in test [1] (setting [2]) is 716 µM.

For `Oc1cc(O)c2c(c1)O[C@H](c1ccc(O)c(O)c1)[C@H](O)C2` [Epicatechin, epicatechin], the concentration for half-maximal inhibition (IC50) in test [1] (setting [2]) is 19.7 µM. Also, in the test on H-4-11-E rat liver cells, the “Glucose utilization in H-4-11-E liver cells” value is 32.4 ± 1.5%.

`C=C(C)[C@@H]1CC[C@]2(C)CC[C@]3(C)[C@H](CC[C@@H]4[C@@]5(C)CC[C@H](O)C(C)(C)[C@@H]5CC[C@]43C)[C@@H]12` [Lupeol, lupeol] gave an IC50 in test [1] of more than 2340 µM.

Regarding `CC[C@H](/C=C/[C@@H](C)[C@H]1CC[C@H]2[C@@H]3CC=C4C[C@@H](O)CC[C@]4(C)[C@H]3CC[C@]12C)C(C)C` [Stigmasterol, stigmasterol], in test [1] (setting [2]), the IC50 was 280 µM.

Regarding `Oc1ccc(C2Oc3cc(O)cc(O)c3CC2O)cc1` (centres unmarked) [Epiafzelechin, epiafzelechin], the IC50 in test [1] (setting [2]) is 27.9 µM. Further, the “Glucose utilization in C2C12 muscle cells” value with C2C12 muscle cells is reported as 33.35 ± 1.8%. The “Glucose utilization in H-4-11-E liver cells” value with H-4-11-E rat liver cells is recorded as 46.7 ± 1.2%.
